Calls of active or inactive are those of the source. The rule behind the calls is not given here.
Columns and labels:
[1] = test system: HaCaT; experiment: Antiinflammatory activity against human HaCaT cells assessed as inhibition of TNF-alpha-induced IL-8 protein expression at 5 uM after 6 hrs by ELISA relative to control; format: functional
[2] = test system: HaCaT; experiment: Cytotoxicity against human HaCaT cells assessed as reduction in cell viability at 5 uM after 24 hrs by MTT assay; format: toxicity, cell-based
[3] = test system: HaCaT; experiment: Inhibition of TNF-alpha-induced NFkappaB (unknown origin) transcription in human HaCaT cells transiently transfected with NFkappaB-LUC at 5 uM after 6 hrs by luminescence based spectrophotometric assay; format: cell-based
[4] = Inhibition of TNF-alpha-induced NFkappaB (unknown origin) transcription in human HaCaT cells transiently transfected with NFkappaB-LUC after 6 hrs by luminescence based spectrophotometric assay; format: cell-based
[5] = test system: HaCaT; experiment: Antiinflammatory activity against human HaCaT cells assessed as inhibition of TNF-alpha-induced IL-8 protein expression after 6 hrs by ELISA; format: functional, cell-based

SMILES | inhibition [1] | Activity [2] | inhibition [3] | inhibition at 5 µM [1] [%] | IC50 [4] [nM] | IC50 [5] [nM]
C=C(C)[C@@H]1CCC(C)=C[C@H]1c1c(O)cc(CCCCC)cc1O | inactive |  |  |  |  | 
CCCCc1cc2c3c(c1)O[C@@]1(C)CCC([C@@H]3C1)C(C)(C)O2 (some centres not stated) | inactive | Non-Toxic | inactive |  |  | 
CCCc1cc(O)c2c(c1)O[C@](C)(CCC=C(C)C)CC2 | inactive | Non-Toxic | Active |  |  | 
CCCCc1cc(O)c(C/C=C(\C)CCC=C(C)C)c(O)c1 |  | Non-Toxic | 100% | 100 | 2360 | 820
CCCCCc1cc(O)c(C/C=C(\C)CCC=C(C)C)c(O)c1 [CANNABIGEROL] |  |  |  | ~40 | 2510 | > 5000
CCCc1cc(O)c(C/C=C(\C)CCC=C(C)C)c(O)c1 | inactive | Non-Toxic | Active |  |  | 
CCCCc1cc2c(c(O)c1C(=O)O)CC[C@@](C)(CCC=C(C)C)O2 | inactive | Non-Toxic | Active |  |  | 
CCCc1cc2c3c(c1)O[C@@]1(C)CCC([C@@H]3C1)C(C)(C)O2 (some centres not stated) | inactive | Non-Toxic | inactive |  |  | 
CCCCc1cc(O)c2c(c1)O[C@](C)(CCC=C(C)C)CC2 |  | Non-Toxic | 100% | 100 | 3110 | 1060
CCCc1cc(O)c(C/C=C(/C)CCC=C(C)C)c(O)c1 | inactive | Non-Toxic | Active |  |  | 
CCCCc1cc2c(c(O)c1C(=O)OC)CC[C@@](C)(CCC=C(C)C)O2 |  | Non-Toxic | Active | 100 | 4230 | 1580
CCCCc1cc(O)c(C/C=C(\C)CCC=C(C)C)c(O)c1C(=O)OC |  | Non-Toxic | 100% | 100 | 600 | 530
CCCCc1cc(O)c(C/C=C(/C)CCC=C(C)C)c(O)c1 |  | Non-Toxic | 100% | 100 | 2800 | 870
